Assay results published in patent publication US20230085307A1, “PYRIDAZINONE COMPOUND AND HERBICIDE” (NISSAN CHEMICAL CORPORATION, priority 2019, published 2023).

Assays:
oval-leafed pondweed = assay: Test Example 1: herbicidal activity, application before weed generation under submerged conditions (Table 16, symbol C); type: in vivo, oval-leafed pondweed (Monochoria vaginalis); settings: for Herbicidal effect on C: oval-leafed pondweed (grade 0-5): 320 g/ha applied herbicide
In short: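 Alluvial soil was flooded to 4 cm depth, weed seeds were sown mixed and 2.5-leaf rice seedlings were transplanted. On sowing day, the compound's emulsion, diluted in water to a set dose, was applied to the water surface. Plants grew at 25–30 °C and were scored 0–5 after three weeks.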

Japanese bulrush = assay: Test Example 2: herbicidal activity, application during weed generation under submerged conditions (Table 17, symbol B); type: in vivo, Japanese bulrush (Schoenoplectus juncoides); settings: application during weed generation, submerged conditions
In short: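 Alluvial soil in Wagner pots was flooded to 4 cm depth and sown with the three weeds together; pots were kept in a greenhouse at 25° C. to 30° C. At the one to two leaf stage, an emulsion formulation diluted in water to a set rate went onto the water surface; scored three weeks later.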

southern crabgrass [1] = assay: Test Example 4: herbicidal effect by soil treatment (Table 19, symbol F); type: in vivo, southern crabgrass (Digitaria ciliaris); settings: for herbicidal effect rating, F: southern crabgrass: 320 g/ha
In short: (§1)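 Seeds were sown in sterilized diluvial soil and covered with about 1.5 cm of soil. An emulsion formulation diluted with water to a predetermined herbicide amount was sprayed evenly onto the soil surface. Plants grew in a greenhouse at 25° C. to 30° C., and the effect was scored three weeks after application using criteria from an earlier test.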

green foxtail = assay: Test Example 4: herbicidal effect by soil treatment (Table 19, symbol G); type: in vivo, green foxtail (Setaria viridis); settings: for herbicidal effect rating, G: green foxtail: 320 g/ha
In short: as §1

barnyard grass = assay: Test Example 4: herbicidal effect by soil treatment (Table 19, symbol H); type: in vivo, barnyard grass (Echinochloa crus-galli); settings: for herbicidal effect rating, H: barnyard grass: 320 g/ha
In short: as §1

wild oat = assay: Test Example 4: herbicidal effect by soil treatment (Table 19, symbol I); type: in vivo, wild oat (Avena fatua); settings: for herbicidal effect rating, I: wild oat: 320 g/ha
In short: as §1

blackgrass = assay: Test Example 4: herbicidal effect by soil treatment (Table 19, symbol J); type: in vivo, blackgrass (Alopecurus myosuroides); settings: for herbicidal effect rating, J: blackgrass: 320 g/ha
In short: as §1

velvetleaf [2] = assay: Test Example 4: herbicidal effect by soil treatment (Table 19, symbol M); type: in vivo, velvetleaf (Abutilon theophrasti); settings: for herbicidal effect rating, M: velvetleaf: 320 g/ha
In short: as §1

lambsquarters [3] = assay: Test Example 4: herbicidal effect by soil treatment (Table 19, symbol O); type: in vivo, lambsquarters (Chenopodium album); settings: for herbicidal effect rating, O: lambsquarters: 320 g/ha
In short: as §1

chickweed = assay: Test Example 4: herbicidal effect by soil treatment (Table 19, symbol P); type: in vivo, common chickweed (Stellaria media); settings: for herbicidal effect rating, P: chickweed: 320 g/ha
In short: as §1

persian speedwell [4] = assay: Test Example 4: herbicidal effect by soil treatment (Table 19, symbol R); type: in vivo, Persian speedwell (Veronica persica); settings: for herbicidal effect rating, R: persian speedwell: 320 g/ha
In short: as §1

southern crabgrass [5] = assay: Test Example 5: herbicidal effect by foliage application, plastic box (Table 20, symbol F); type: in vivo, southern crabgrass (Digitaria ciliaris); settings: foliage application; for effect on southern crabgrass (F): 320 g/ha, 3 weeks after application
In short: (§2)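 Plants sown in sterilized diluvial soil and grown 14 days in a greenhouse at 25° C to 30° C, then sprayed on the foliage with the compound's emulsion diluted in water to a predetermined herbicide amount. Injury to weeds and crops scored three weeks after application on a visual rating scale.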

windgrass = assay: Test Example 5: herbicidal effect by foliage application, plastic box (Table 20, symbol L); type: in vivo, windgrass (Apera spica-venti); settings: foliage application; for effect on windgrass (L): 320 g/ha, 3 weeks after application
In short: as §2

velvetleaf [6] = assay: Test Example 5: herbicidal effect by foliage application, plastic box (Table 20, symbol M); type: in vivo, velvetleaf (Abutilon theophrasti); settings: foliage application; for effect on velvetleaf (M): 320 g/ha, 3 weeks after application
In short: as §2

lambsquarters [7] = assay: Test Example 5: herbicidal effect by foliage application, plastic box (Table 20, symbol O); type: in vivo, lambsquarters (Chenopodium album); settings: foliage application; for effect on lambsquarters (O): 320 g/ha, 3 weeks after application
In short: as §2

persian speedwell [8] = assay: Test Example 5: herbicidal effect by foliage application, plastic box (Table 20, symbol R); type: in vivo, Persian speedwell (Veronica persica); settings: foliage application; for effect on persian speedwell (R): 320 g/ha, 3 weeks after application
In short: as §2

[9] = amount of applied herbicide 246 g/ha
[10] = 246 g/ha, three weeks after application

CCCCOc1ccc(-c2sc3ccc(F)cc3c2-c2c(OC(=O)CCC)c(C)nn(C)c2=O)cc1 [2-037]
Herbicidal effect on C: oval-leafed pondweed (grade 0-5) (oval-leafed pondweed): 3 (Herbicidal rate of 40% or more and less than 70%)
herbicidal effect rating, B: Japanese bulrush (Japanese bulrush; AAH 320 g/ha): 1 (Herbicidal rate of 5% or more and less than 20%)
herbicidal effect rating, F: southern crabgrass (southern crabgrass [1]): 2 (Herbicidal rate of 20% or more and less than 40%)
herbicidal effect rating, G: green foxtail (green foxtail): 2 (Herbicidal rate of 20% or more and less than 40%)
herbicidal effect rating, H: barnyard grass (barnyard grass): 0 (Herbicidal rate of 5% or less (almost no effect))
herbicidal effect rating, I: wild oat (wild oat): 0 (Herbicidal rate of 5% or less (almost no effect))
herbicidal effect rating, J: blackgrass (blackgrass): 0 (Herbicidal rate of 5% or less (almost no effect))
herbicidal effect rating, M: velvetleaf (velvetleaf [2]): 4 (Herbicidal rate of 70% or more and less than 90%)
herbicidal effect rating, O: lambsquarters (lambsquarters [3]): 2 (Herbicidal rate of 20% or more and less than 40%)
herbicidal effect rating, P: chickweed (chickweed): 1 (Herbicidal rate of 5% or more and less than 20%)
herbicidal effect rating, R: persian speedwell (persian speedwell [4]): 3 (Herbicidal rate of 40% or more and less than 70%)
effect on southern crabgrass (F) (southern crabgrass [5]): 2 (Herbicidal rate of 20% or more and less than 40%)
effect on windgrass (L) (windgrass): 0 (Herbicidal rate of 5% or less (almost no effect))
effect on velvetleaf (M) (velvetleaf [6]): 5 (Herbicidal rate of 90% or more (almost completely withered))
effect on lambsquarters (O) (lambsquarters [7]): 4 (Herbicidal rate of 70% or more and less than 90%)
effect on persian speedwell (R) (persian speedwell [8]): 5 (Herbicidal rate of 90% or more (almost completely withered))

CCCCCOc1ccc(-c2sc3ccc(F)cc3c2-c2c(OC(=O)CCC)c(C)nn(C)c2=O)cc1 [2-038]
Herbicidal effect on C: oval-leafed pondweed (grade 0-5) (oval-leafed pondweed): 0 (Herbicidal rate of 5% or less (almost no effect))
herbicidal effect rating, B: Japanese bulrush (Japanese bulrush; AAH 320 g/ha): 0 (Herbicidal rate of 5% or less (almost no effect))
herbicidal effect rating, F: southern crabgrass (southern crabgrass [1]): 0 (Herbicidal rate of 5% or less (almost no effect))
herbicidal effect rating, G: green foxtail (green foxtail): 0 (Herbicidal rate of 5% or less (almost no effect))
herbicidal effect rating, H: barnyard grass (barnyard grass): 0 (Herbicidal rate of 5% or less (almost no effect))
herbicidal effect rating, I: wild oat (wild oat): 0 (Herbicidal rate of 5% or less (almost no effect))
herbicidal effect rating, J: blackgrass (blackgrass): 0 (Herbicidal rate of 5% or less (almost no effect))
herbicidal effect rating, M: velvetleaf (velvetleaf [2]): 0 (Herbicidal rate of 5% or less (almost no effect))
herbicidal effect rating, O: lambsquarters (lambsquarters [3]): 1 (Herbicidal rate of 5% or more and less than 20%)
herbicidal effect rating, P: chickweed (chickweed): 1 (Herbicidal rate of 5% or more and less than 20%)
herbicidal effect rating, R: persian speedwell (persian speedwell [4]): 4 (Herbicidal rate of 70% or more and less than 90%)
effect on southern crabgrass (F) (southern crabgrass [5]): 0 (Herbicidal rate of 5% or less (almost no effect))
effect on windgrass (L) (windgrass): 0 (Herbicidal rate of 5% or less (almost no effect))
effect on velvetleaf (M) (velvetleaf [6]): 4 (Herbicidal rate of 70% or more and less than 90%)
effect on lambsquarters (O) (lambsquarters [7]): 3 (Herbicidal rate of 40% or more and less than 70%)
effect on persian speedwell (R) (persian speedwell [8]): 5 (Herbicidal rate of 90% or more (almost completely withered))

Cc1nn(C)c(=O)c(-c2c(-c3ccc(OC4CCCC4)cc3)sc3ccc(F)cc23)c1O [2-039]
Herbicidal effect on C: oval-leafed pondweed (grade 0-5) (oval-leafed pondweed): 5 (Herbicidal rate of 90% or more (almost completely withered))
herbicidal effect rating, B: Japanese bulrush (Japanese bulrush; AAH 320 g/ha): 0 (Herbicidal rate of 5% or less (almost no effect))
herbicidal effect rating, F: southern crabgrass (southern crabgrass [1]): 0 (Herbicidal rate of 5% or less (almost no effect))
herbicidal effect rating, G: green foxtail (green foxtail): 0 (Herbicidal rate of 5% or less (almost no effect))
herbicidal effect rating, H: barnyard grass (barnyard grass): 0 (Herbicidal rate of 5% or less (almost no effect))
herbicidal effect rating, I: wild oat (wild oat): 0 (Herbicidal rate of 5% or less (almost no effect))
herbicidal effect rating, J: blackgrass (blackgrass): 0 (Herbicidal rate of 5% or less (almost no effect))
herbicidal effect rating, M: velvetleaf (velvetleaf [2]): 0 (Herbicidal rate of 5% or less (almost no effect))
herbicidal effect rating, O: lambsquarters (lambsquarters [3]): 0 (Herbicidal rate of 5% or less (almost no effect))
herbicidal effect rating, P: chickweed (chickweed): 3 (Herbicidal rate of 40% or more and less than 70%)
herbicidal effect rating, R: persian speedwell (persian speedwell [4]): 4 (Herbicidal rate of 70% or more and less than 90%)
effect on southern crabgrass (F) (southern crabgrass [5]): 4 (Herbicidal rate of 70% or more and less than 90%)
effect on windgrass (L) (windgrass): 5 (Herbicidal rate of 90% or more (almost completely withered))
effect on velvetleaf (M) (velvetleaf [6]): 3 (Herbicidal rate of 40% or more and less than 70%)
effect on lambsquarters (O) (lambsquarters [7]): 5 (Herbicidal rate of 90% or more (almost completely withered))
effect on persian speedwell (R) (persian speedwell [8]): 5 (Herbicidal rate of 90% or more (almost completely withered))

CCCC(=O)Oc1c(C)nn(C)c(=O)c1-c1c(-c2ccccc2OC(F)(F)F)sc2ccc(F)cc12 [2-044]
Herbicidal effect on C: oval-leafed pondweed (grade 0-5) (oval-leafed pondweed): 0 (Herbicidal rate of 5% or less (almost no effect))
herbicidal effect rating, B: Japanese bulrush (Japanese bulrush; AAH 320 g/ha): 3 (Herbicidal rate of 40% or more and less than 70%)
herbicidal effect rating, F: southern crabgrass (southern crabgrass [1]): 3 (Herbicidal rate of 40% or more and less than 70%)
herbicidal effect rating, G: green foxtail (green foxtail): 4 (Herbicidal rate of 70% or more and less than 90%)
herbicidal effect rating, H: barnyard grass (barnyard grass): 3 (Herbicidal rate of 40% or more and less than 70%)
herbicidal effect rating, I: wild oat (wild oat): 2 (Herbicidal rate of 20% or more and less than 40%)
herbicidal effect rating, J: blackgrass (blackgrass): 0 (Herbicidal rate of 5% or less (almost no effect))
herbicidal effect rating, M: velvetleaf (velvetleaf [2]): 3 (Herbicidal rate of 40% or more and less than 70%)
herbicidal effect rating, O: lambsquarters (lambsquarters [3]): 5 (Herbicidal rate of 90% or more (almost completely withered))
herbicidal effect rating, P: chickweed (chickweed): 3 (Herbicidal rate of 40% or more and less than 70%)
herbicidal effect rating, R: persian speedwell (persian speedwell [4]): 4 (Herbicidal rate of 70% or more and less than 90%)
effect on southern crabgrass (F) (southern crabgrass [5]): 4 (Herbicidal rate of 70% or more and less than 90%)
effect on windgrass (L) (windgrass): 4 (Herbicidal rate of 70% or more and less than 90%)
effect on velvetleaf (M) (velvetleaf [6]): 5 (Herbicidal rate of 90% or more (almost completely withered))
effect on lambsquarters (O) (lambsquarters [7]): 1 (Herbicidal rate of 5% or more and less than 20%)
effect on persian speedwell (R) (persian speedwell [8]): 5 (Herbicidal rate of 90% or more (almost completely withered))

CCCC(=O)Oc1c(C)nn(C)c(=O)c1-c1c(-c2ccc(F)cc2OCC)oc2ccc(C)cc12 [9-010]
Herbicidal effect, C: oval-leafed pondweed (oval-leafed pondweed; [9]): 3 (Herbicidal rate of 40% or more and less than 70%)
herbicidal effect rating, B: Japanese bulrush (Japanese bulrush; AAH 246 g/ha): 0 (Herbicidal rate of 5% or less (almost no effect))
F: southern crabgrass, herbicidal effect grade (southern crabgrass [1]; [9]): 0 (Herbicidal rate of 5% or less (almost no effect))
G: green foxtail, herbicidal effect grade (green foxtail; [9]): 3 (Herbicidal rate of 40% or more and less than 70%)
H: barnyard grass, herbicidal effect grade (barnyard grass; [9]): 0 (Herbicidal rate of 5% or less (almost no effect))
I: wild oat, herbicidal effect grade (wild oat; [9]): 0 (Herbicidal rate of 5% or less (almost no effect))
J: blackgrass, herbicidal effect grade (blackgrass; [9]): 0 (Herbicidal rate of 5% or less (almost no effect))
M: velvetleaf, herbicidal effect grade (velvetleaf [2]; [9]): 0 (Herbicidal rate of 5% or less (almost no effect))
O: lambsquarters, herbicidal effect grade (lambsquarters [3]; [9]): 0 (Herbicidal rate of 5% or less (almost no effect))
P: chickweed, herbicidal effect grade (chickweed; [9]): 0 (Herbicidal rate of 5% or less (almost no effect))
R: persian speedwell, herbicidal effect grade (persian speedwell [4]; [9]): 0 (Herbicidal rate of 5% or less (almost no effect))
herbicidal effect on southern crabgrass (F) (southern crabgrass [5]; [10]): 3 (Herbicidal rate of 40% or more and less than 70%)
herbicidal effect on windgrass (L) (windgrass; [10]): 0 (Herbicidal rate of 5% or less (almost no effect))
herbicidal effect on velvetleaf (M) (velvetleaf [6]; [10]): 4 (Herbicidal rate of 70% or more and less than 90%)
herbicidal effect on lambsquarters (O) (lambsquarters [7]; [10]): 3 (Herbicidal rate of 40% or more and less than 70%)
herbicidal effect on persian speedwell (R) (persian speedwell [8]; [10]): 3 (Herbicidal rate of 40% or more and less than 70%)
